Results on 1 molecule are retold here after US12485107B2, “Methods for the prevention or treatment of cytokine storm” (Beth Israel Deaconess Medical Center, Inc., priority 2019, dated 2025).

Entries after “also recorded” stand apart in the source; their conditions may differ.

Assay [1] relates to RAW264.7 murine macrophages. In words: Cytokine array/ELISA of conditioned medium of RAW264.7 macrophages stimulated with chemotherapy-generated ID8 debris. The class given is cell-based. Here is the method: Macrophages were treated with vehicle or PTUPB (1-10 μM) in Dulbecco's phosphate-buffered saline containing calcium and magnesium (PBS^+/+) (Lonza, Basel, Switzerland) and incubated for 2 hours at 37° C. Carboplatin- or paclitaxel-generated ID8 or OVCAR5 debris was added to murine or human macrophages, respectively, at a 1:4 (macrophage:dead cell body) ratio and incubated for 1 hour at 37° C. Next, plates were aspirated, macrophages were re-fed with serum-free medium, and incubated overnight at 37° C. The conditioned medium was collected the next day, centrifuged at 1100 rpm for 5 minutes to remove particulates, and stored at −20° C. until further analysis via cytokine array, ELISA, or LC-MS/MS. Collection of RAW264.7 murine macrophage conditioned medium was repeated using debris from three distinct collections for a total of three separate experiments. Collection of human monocyte-derived macrophage conditioned medium was repeated using peripheral blood monocytes from three different human donors and debris from three distinct collections for a total of three separate experiments. Collection of primary murine peritoneal macrophages was repeated using macrophages pooled from 5-10 C57BL/6 female mice and debris from two distinct collections for a total of two separate experiments.
In vivo cytokines (serum or ascites) or cytokines in conditioned medium of macrophages treated with PTUPB and exposed to paclitaxel- or carboplatin-generated debris, were assessed according to the protocols provided by Proteome Profiler Mouse Cytokine Array Kit Panel A, Proteome Profiler Mouse Angiogenesis Array Kit, or Proteome Profiler Human Cytokine Array Kit Panel A (R&D Systems, Inc., Minneapolis, MN). Array control allows for comparison between membranes. […]
For quantitation of pro-inflammatory cytokines, serum or conditioned medium from macrophages treated with PTUPB and stimulated with paclitaxel-generated ID8 debris or from paclitaxel-generated ID8 debris alone without macrophages was used according to the protocols provided in each ELISA kit (R&D Systems, Minneapolis, MN).
(In general: ELISA stands for enzyme-linked immunosorbent assay.)

Assay [2] relates to primary murine peritoneal macrophages. The assay can be described thus: Cytokine array/ELISA of conditioned medium of primary murine peritoneal macrophages stimulated with paclitaxel-generated ID8 debris. The format is cell-based. The settings on record: PTUPB 5 or 10 μM, 2 hours. As to the method:
Macrophages were treated with vehicle or PTUPB (1-10 μM) in Dulbecco's phosphate-buffered saline containing calcium and magnesium (PBS^+/+) (Lonza, Basel, Switzerland) and incubated for 2 hours at 37° C. Carboplatin- or paclitaxel-generated ID8 or OVCAR5 debris was added to murine or human macrophages, respectively, at a 1:4 (macrophage:dead cell body) ratio and incubated for 1 hour at 37° C. Next, plates were aspirated, macrophages were re-fed with serum-free medium, and incubated overnight at 37° C. […]
In vivo cytokines (serum or ascites) or cytokines in conditioned medium of macrophages treated with PTUPB and exposed to paclitaxel- or carboplatin-generated debris, were assessed according to the protocols provided by Proteome Profiler Mouse Cytokine Array Kit Panel A, Proteome Profiler Mouse Angiogenesis Array Kit, or Proteome Profiler Human Cytokine Array Kit Panel A (R&D Systems, Inc., Minneapolis, MN). […]
For quantitation of pro-inflammatory cytokines, serum or conditioned medium from macrophages treated with PTUPB and stimulated with paclitaxel-generated ID8 debris or from paclitaxel-generated ID8 debris alone without macrophages was used according to the protocols provided in each ELISA kit (R&D Systems, Minneapolis, MN). […]

Assay [3] relates to debris-stimulated intraperitoneal ovarian tumors (ID8). The assay can be described thus: Debris-stimulated intraperitoneal ID8 ovarian tumor model, survival. The class given is in vivo, mice. As to the method: All animal studies were reviewed and approved by the Animal Care and Use Committee of Beth Israel Deaconess Medical Center, Boston, MA Mice were housed at a maximum of 5 animals per cage in a pathogen-free facility with unlimited access to sterile water and chow. Daily welfare evaluations and animal sacrifices were carried out according to the Committee guidelines. For murine injections, chemotherapy-generated murine (ID8) or human (OVCAR5) ovarian tumor cell debris was combined with ID8 or OVCAR5 living cells at equal volumes in PBS. Six-week-old female C57BL/6 (The Jackson Laboratory, Bar Harbor, ME) or SCID mice (Charles River, Cambridge, MA) were injected subcutaneously or intraperitoneally with 100 μL/mouse of ID8 or OVCAR5 cells, respectively. For orthotopic injections, 6-week-old C57BL/6 female mice were injected with 20 μL/mouse of matrigel (Becton Dickinson and Company, Franklin Lakes, NJ) mixed with paclitaxel-generated ID8 debris and/or ID8 living cells at a 1:1 (matrigel:cells) ratio directly into the right ovarian bursa. Systemic treatment with PTUPB (30 mg/kg/day) or control was administered via mini-osmotic pumps (Alzet Inc., Cupertino, CA) implanted into the peritoneum of the mice 4 weeks post-injection. Treatment ended 28 days after implantation of the pumps. Systemic chemotherapy with carboplatin (10 mg/kg q 3 days) or control that were initiated on the day of tumor cell injection.
Statistical analyses for in vitro studies were performed using Student's two-tailed unpaired t-test. Data are represented as mean±S.E.M. with p-values less than 0.05 considered statistically significant. For in vivo studies, the Kaplan-Meier product-limit method and log-rank testing were used to evaluate survival differences over time after the day of tumor cell injection between mice co-injected with tumor cell debris and living cells vs. living cells alone. Data are represented as percent survival with p-values less than 0.01 considered statistically significant.

The test system of assay [4] is RAW264.7 murine macrophages. The assay can be described thus: Cytokine arrays of RAW264.7 macrophages stimulated with gemcitabine-generated PancOH7 debris. The format is cell-based. The settings on record: 5 μM, 2 hours pre-treatment. As to the method:
(A) Inflammatory and (B) angiogenic cytokine array of RAW264.7 murine macrophage conditioned media co-cultured with chemotherapy (gemcitabine)-generated murine pancreatic (PancOH7) tumor cell debris and pre-treated with vehicle or PTUPB (5 μM, 2 hours).
Inflammatory (FIG. 15A) and angiogenic (FIG. 15B) cytokine arrays of conditioned media from RAW264.7 macrophages treated with vehicle or PTUPB (5 uM) for 2 hours stimulated with gemcitabine-generated PancOH7 debris are shown in FIGS. 15A and 15B. “Cytokine storm” released by debris-stimulated macrophages is prevented by the dual COX-2/sEH inhibitor PTUPB.

The test system of assay [5] is RAW264.7 murine macrophages. In words: Inflammatory cytokine array of RAW264.7 macrophages stimulated with ethanol-generated Hepa 1-6 debris. The format is cell-based. The settings on record: 5 μM (combination 5 μM each), 2 hours pre-treatment. Here is the method:
Inflammatory cytokine array of RAW264.7 murine macrophage conditioned media co-cultured with ethanol-generated murine liver (Hepa 1-6) tumor cell debris and pre-treated for 2 hours with vehicle, PTUPB (5 μM), Ome-21i (5 μM), or Ome-21i+Celecoxib (5 μM each).
An inflammatory cytokine array of conditioned media from RAW264.7 macrophages treated with vehicle, PTUPB (5 μM), Ome-21i (5 μM), or Ome-21i (5 μM) and Celecoxib (5 μM) for 2 hours stimulated with ethanol-generated Hepa 1-6 debris is shown in FIG. 17. “Cytokine storm” released by debris-stimulated macrophages is prevented by the dual COX-2/sEH inhibitor PTUPB or sEH inhibitor Ome-21i and COX-2 inhibitor celecoxib.

In assay [6] the test system is RAW 264.7 murine macrophages. The assay can be described thus: Inflammatory cytokine array of RAW264.7 macrophages stimulated with ethanol-generated MS-1 endothelial cell debris. The class given is cell-based. The settings on record: 5 μM (combination 2.5 μM each), 2 hours pre-treatment.

For the molecule `NS(=O)(=O)c1ccc(-n2nc(CCCNC(=O)Nc3ccc(C(F)(F)F)cc3)cc2-c2ccccc2)cc1` [PTUPB, 4-(5-phenyl-3-{3-[3-(4-trifluoromethyl-phenyl)-ureido]propyl}-pyrazol-1-yl) benzenesulfonamide], the “debris-stimulated macrophage release of IL-1ra” value in assay [1] (FIGS. 4A, 4C, 5D, ID8 debris) was “suppressed debris-stimulated macrophage release of IL-1ra”. For the same molecule, in assay [1] (PTUPB 5 μM, 2 hours, paclitaxel- or carboplatin-generated ID8 debris), the “pro-inflammatory cytokine surge (TNFα, MIP-2/CXCL2, MIP-1β/CCL4, CCL2/MCP-1, sICAM-1/CD54, G-CSF) by debris-stimulated macrophages” value is given as “prevented the cytokine surge”. In assay [1] (PTUPB 2.5 or 5 μM, 2 hours, paclitaxel- or carboplatin-generated ID8 debris), the “angiogenic cytokine surge (serpin E1/PAI-1, osteopontin, MMP9, CCL2/MCP-1) by debris-stimulated macrophages” value is given as “suppressed an angiogenic cytokine surge”. Also, the “debris-stimulated cytokine surge by primary murine peritoneal macrophages” value in assay [2] is “inhibited a debris-stimulated cytokine surge”. For the same molecule, the sustained survival result in assay [3] (PTUPB 30 mg/kg/day by mini-osmotic pump from 4 weeks post-injection, paclitaxel- or carboplatin-generated ID8 debris + ID8 living cells i.p.) is listed as “over 120 days post-injection”. Moreover, the “survival compared to control (Kaplan-Meier, log-rank), paclitaxel-generated debris i.p. model” value in assay [3] (PTUPB 30 mg/kg/day, log-rank test=9.70, p=0.0018) was “significantly prolonged survival”. In assay [3] (PTUPB 30 mg/kg/day, log-rank test=9.85, p=0.0017), the “survival compared to control (Kaplan-Meier, log-rank), carboplatin-generated debris i.p. model” value was “significantly prolonged survival”. Moreover, in assay [4], the “cytokine storm (inflammatory and angiogenic arrays) released by macrophages stimulated with gemcitabine-generated PancOH7 debris” value was “prevented”. The “cytokine storm released by macrophages stimulated with ethanol-generated Hepa 1-6 debris” value in assay [5] is given as “able to inhibit; also recorded: prevented”. Further, the “cytokine storm by ethanol-generated endothelial cell (MS-1) debris” value in assay [6] is given as “inhibited”.
